In publication PMC9679916 (Biomacromolecules, 2021):
Bridges are numbered along the chain shown (N, C = ends). Where no end group is shown, it is not given here.

What was measured:
human MRP-14 (hS100A9) = molecular target: T1, human MRP-14 (hS100A9) (Homo sapiens, UniProt P06702); experiment: ELISA-based binding affinity of MRP-14-targeted TMV, human protein; conditions: read-out: KD (nM) human MRP-14, hS100A9 2 μg/mL coated, TMV 0-5 μg/mL, anti-TMV detection, single-site binding model, estimated
T1 sequence (P06702 1-114): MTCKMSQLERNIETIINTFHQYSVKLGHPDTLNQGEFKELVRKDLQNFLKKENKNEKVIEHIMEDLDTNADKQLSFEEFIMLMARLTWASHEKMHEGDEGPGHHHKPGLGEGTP

mouse MRP-14 (mS100A9) = molecular target: T2, mouse MRP-14 (mS100A9) (Mus musculus, UniProt P31725); experiment: ELISA-based binding affinity of MRP-14-targeted TMV, mouse protein; conditions: for Kd: read-out: KD (nM) mouse MRP-14, ELISA, mS100A9 2 μg/mL coated, TMV 0-5 μg/mL, anti-TMV detection, single-site binding model, estimated
T2 sequence (P31725 1-113): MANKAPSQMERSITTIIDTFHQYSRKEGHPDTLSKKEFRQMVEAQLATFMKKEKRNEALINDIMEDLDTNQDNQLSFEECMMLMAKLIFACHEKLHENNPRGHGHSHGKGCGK

[1] = tested on: deep vein thrombi in inferior vena cava; experiment: Murine DVT model; type: in vivo, mouse; conditions: vs PBS group, 3 h postinjection
[2] = molecular target: T3, MRP-8/14 heterodimer (untagged MRP-8 premixed 1:1 with His-tagged MRP-14) (human | , UniProt P06702;P05109); experiment: SPR
T3 sequence 1: T1 sequence (P06702 1-114)
T3 sequence 2: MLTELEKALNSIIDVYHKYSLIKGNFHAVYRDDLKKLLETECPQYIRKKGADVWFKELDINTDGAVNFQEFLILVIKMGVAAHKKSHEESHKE

[3] = molecular target: T4, His-tagged MRP-14 (myeloid related protein 14) (human, UniProt P06702 1-114); experiment: SPR
T4 sequence: T1 sequence (P06702 1-114)

**Q.** With “ACNSVHQHHCGGGS-N3 (disulfide) [TMV-MTP6]” as the molecule, how does the Kd (human MRP-14 (hS100A9)) read?
**A.** Its Kd is 11.4 nM.

**Q.** And the “binding affinity, times stronger toward mouse than human MRP-14” value (mouse MRP-14 (mS100A9); ratio of ELISA KD values, mouse vs human MRP-14)?
**A.** The value was ~ 4 times.

**Q.** And the Kd (mouse MRP-14 (mS100A9))?
**A.** The Kd was 2.6 nM.

**Q.** How did the “reduction in thrombus weight and area” value [1] turn out when ASSHIHHGGGS-C [CPMV-MTP2] was run?
**A.** The value was 50%.

**Q.** ASSHIHHGGGS-C [TMV-MTP2] was tested. Which Kd (human MRP-14 (hS100A9)) did it give?
**A.** The Kd was 13.1 nM.

**Q.** What about the Kd (mouse MRP-14 (mS100A9)) of the same molecule?
**A.** Its Kd is 11.9 nM.

**Q.** Which results are given for ACNSVHQHHCGGGS [MTP6 synthetic peptide with GGGS spacer]?
**A.** Kd [2]: 57.6 µM; Kd [3]: 39.6 µM

**Q.** Which Kd [3] does the source give for HNHMADPGGGS-NH2 [MTP3 synthetic peptide with GGGS spacer] here?
**A.** The Kd was 117 µM.

**Q.** For ACNSHRHGACGGGS-NH2 (disulfide 2-10 (inferred)) [MTP5 synthetic peptide with GGGS spacer], which Kd [3] is on record?
**A.** Its Kd is 67.6 µM.
